Literature values in patent US20230039272A1, “COMPOSITION FOR IMPROVED ENERGY, FOCUS AND CLARITY” (Gwella Mushrooms Inc., priority 2021, published 2023).
Residues, ends and D or L forms follow the SMILES beside them. *: point of attachment. PhAc = O=C(Cc1ccccc1)*

Tests used:
[1] = patients with mild to moderate dementia
[2] = high doses for long periods of time

Compound	quality of life scale [1]	test scores on logical performance, attention, concentration, memory and spatial orientation [1]	step-down retention performance and acquisition performance in active-avoidance situations (in vivo)	learning of animals (pre-clinical studies)	safety [2]	cognition restoring effect (Amyloid Beta exposure; animal models of Alzheimer's Disease, preliminary studies)	neuroprotective effect (cell viability, calcium homeostasis, Reactive Oxygen Species levels, mitochondrial function, tau phosphorylation, neurite outgrowth) (Amyloid Beta exposure; impairments caused by Amyloid Beta exposure)
NC(=O)CN1CC(O)CC1=O (stereo not shown) [Oxiracetam]	improved quality of life scale	higher test scores	improve step-down retention performance and acquisition performance	improve learning of animals	save, even at high doses for long periods of time	–	–
CCOC(=O)CNC(=O)[C@@H]1CCCN1C(=O)Cc1ccccc1 [N-phenylacetyl-L-prolylglycine ethyl ester] (PhAc-Pro-Gly-OEt)	–	–	–	–	–	cognition restoring effect	neuroprotective effect
